# Reference: patent US8999937B2, “Glucocorticoid induced leucine zipper mimetics as therapeutic agents in multiple sclerosis” (Indiana University Research and Technology Corporation, priority 2011, dated 2015)
# System: CD4+ LNC from PLP primed SJL/J mice
# Assay: In vitro proliferation ([3H]-thymidine) of PLP139-151 restimulated CD4+ LNC from primed SJL/J mice
# Format: cell-based, mouse
# Conditions: with Pep-1, PLP 40 μg/ml, 72 h
# Experimental: CD4+ lymph node cells (LNC) isolated from the draining lymph nodes harvested from SJL/J mice 10 days after immunization with PLP139-151 were cultured in 96-well plates at […] in complete RPMI and restimulated with the PLP peptide (40 μg/ml) for 72 h, including a final 16-h pulse with [^3H]-thymidine. […] Separate cultures stimulated with ova (40 μg/ml) served as control for antigen specificity. Irradiated splenocytes from syngenic mice were used as antigen presenting cells (APC). Cultures were harvested onto glass fiber mats using a Skatron harvester (Skatron, Sterling, Va.), and the levels of [^3H]-thymidine incorporation were determined by liquid scintillation counting (Microbeta; Wallac, Turku, Finland). Results were confirmed by replicate experiments. Data are expressed as Δcpm (counts/min incorporated in antigen-stimulated culture-counts/min incorporated by control unstimulated culture).
# Supernatants collected at 24 and 48 h were assessed for specific cytokines using the OptEIA kits (BD Biosciences). Proliferation assays included parallel cultures for 72 h with a final 18-h pulse with [^3H]thymidine measured by liquid scintillation counting (Microbeta, Turku, Finland).
compound,measurement,value
"C[C@@H]1C[C@H]2[C@@H]3CCC4=CC(=O)C=C[C@]4(C)[C@@]3(F)[C@@H](O)C[C@]2(C)[C@@]1(O)C(=O)CO [dexamethasone, reference compound]",proliferative response (Δcpm),2226+/−327 cpm
